# Source: paper PMC11124822, “Discovery and Anticancer Screening of Novel Oxindole-Based Derivative Bearing Pyridyl Group as Potent and Selective Dual FLT3/CDK2 Kinase Inhibitor” (Pharmaceuticals, 2024)
# Where two headings read alike, the source gives them in different places.
# Experiments:
# Assay in all cases: NCI-60 antiproliferative screen (SRB)
# [1] = test system: CCRF-CEM; format: cell-based, human; settings: 48 h
# [2] = test system: EKVX; format: cell-based, human; settings: 48 h
# [3] = test system: U251; format: cell-based, human; settings: 48 h
# [4] = test system: 786-0; format: cell-based, human; settings: 48 h
# [5] = test system: SK-MEL-2; format: cell-based, human; settings: 48 h
# [6] = test system: NCI-H226; format: cell-based, human; settings: 48 h
# [7] = test system: UO-31; format: cell-based, human; settings: five-dose, 48 h, UO-31
# [8] = test system: MDA-MB-468; format: cell-based, human; settings: 48 h
# [9] = test system: RPMI-8226; format: cell-based, human; settings: 48 h
# [10] = test system: SNB-75; settings: Homo sapiens, SNB-75, 48 h, read-out: Growth inhibition (%)
# Method: Anticancer activity was tested against 60 cancer cell lines (NCI-60) after 48h treatments with a single dosage of 10 μM of compounds by using sulforhodamine B assay [39] on the traditional 96-well platform. […] The human cancer cell lines of the NCI-60 panel are grown in RPMI 1640 medium supplemented with 5% FBS (fetal bovine serum) and 2 mM L-glutamine. […] For further analysis of promising compounds, five dose screens were performed against the NCI-60 panel. Drug treatments are performed in 5 doses using 10-fold or ½ log dose dilutions.
# [11] = test system: HS 578T; format: cell-based, human; settings: 48 h
# [12] = test system: SK-MEL-28; format: cell-based, human
# [13] = test system: KM12; format: cell-based, human; settings: 48 h
# [14] = test system: K-562; format: cell-based, human; settings: 48 h
# [15] = test system: MCF7; format: cell-based, human; settings: 48 h
# [16] = test system: OVCAR-5; format: cell-based, human; settings: 48 h
# [17] = test system: T-47D; format: cell-based, human; settings: 48 h
# [18] = test system: MALME-3M; format: cell-based, human; settings: five-dose, 48 h, MELME-3M
# [19] = test system: SN12C; format: cell-based, human; settings: 48 h
# [20] = test system: HCC-2998; format: cell-based, human; settings: 48 h
# [21] = test system: IGROV1; format: cell-based, human; settings: five-dose, 48 h, IGROV1
# [22] = test system: MDA-MB-231; format: cell-based, human; settings: 48 h
# [23] = test system: HCT-116; format: cell-based, human; settings: 48 h
# [24] = test system: SF-295; format: cell-based, human; settings: 48 h
# [25] = test system: COLO 205; format: cell-based, human; settings: 48 h
# [26] = test system: TK-10; format: cell-based, human; settings: 48 h
# [27] = test system: RXF 393; format: cell-based, human; settings: 48 h
# [28] = test system: MOLT-4; format: cell-based; settings: Homo sapiens, 48 h
# [29] = test system: PC-3; format: cell-based, human; settings: 48 h
# [30] = test system: HL-60(TB); format: cell-based, human; settings: 48 h
smiles,measurement,setting,value
"O=C1Nc2cc(Cl)ccc2C1=Cc1ccc(OCc2cccnc2)cc1 (mixture of isomers) [Compound 5l, (E/Z)-6-Chloro-3-[4-(pyridin-3-ylmethoxy)benzylidene] indolin-2-one]",inhibition at 10 µM,"[1]; Homo sapiens, 10 µM single dose, CCRF-CEM (Leukemia), read-out: Growth inhibition (%)",83.9%
same,GI50,"[1]; Homo sapiens, five-dose, CCRF-CEM",3.72 µM
same,TGI,"[1]; five-dose, CCRF-CEM",>100 µM
same,inhibition at 10 µM,"[2]; Homo sapiens, 10 µM single dose, EKVX (NSCLC), read-out: Growth inhibition (%)",60.9%
same,GI50,"[2]; Homo sapiens, five-dose, EKVX",6.02 µM
same,TGI,"[2]; five-dose, EKVX",>100 µM
same,inhibition at 10 µM,"[3]; Homo sapiens, U-251, 10 µM single dose, U251 (CNS), read-out: Growth inhibition (%)",76.4%
same,GI50,"[3]; Homo sapiens, U-251, five-dose, U251",7.55 µM
same,CC50,"[3]; Homo sapiens, U-251, five-dose, U251, read-out: LC50 (the source's name)",> 100 µM
same,TGI,"[3]; five-dose, U251",39.40 µM
same,inhibition at 10 µM,"[4]; Homo sapiens, 10 µM single dose, 786-0 (Renal), read-out: Growth inhibition (%)",47.2%
same,GI50,"[4]; Homo sapiens, five-dose, 786-0",26.6 µM
same,CC50,"[4]; Homo sapiens, five-dose, 786-0, read-out: LC50 (the source's name)",> 100 µM
same,TGI,"[4]; five-dose, 786-0",>100 µM
same,inhibition at 10 µM,"[5]; Homo sapiens, 10 µM single dose, SK-MEL-2 (Melanoma), read-out: Growth inhibition (%)",66.2%
same,GI50,"[5]; Homo sapiens, five-dose, SK-MEL-2",9.67 µM
same,CC50,"[5]; Homo sapiens, five-dose, SK-MEL-2, read-out: LC50 (the source's name)",> 100 µM
same,TGI,"[5]; five-dose, SK-MEL-2",65.90 µM
same,inhibition at 10 µM,"[6]; Homo sapiens, 10 µM single dose, NCI-H226 (NSCLC), read-out: Growth inhibition (%)",62.9%
same,GI50,"[6]; Homo sapiens, five-dose, NCI-H226",9 µM
same,TGI,"[6]; five-dose, NCI-H226",70.00 µM
same,GI50,[7]; Homo sapiens,2700 nM
same,CC50,"[7]; Homo sapiens, read-out: LC50 (the source's name)",> 100 µM
same,TGI,[7],>100 µM
same,inhibition at 10 µM,"[8]; Homo sapiens, 10 µM single dose, MDA-MB-468 (Breast), read-out: Growth inhibition (%)",85.7%
same,GI50,"[8]; Homo sapiens, five-dose, MDA-MB-468",3.76 µM
same,CC50,"[8]; Homo sapiens, five-dose, MDA-MB-468, read-out: LC50 (the source's name)",> 100 µM
same,TGI,"[8]; five-dose, MDA-MB-468",43.00 µM
same,inhibition at 10 µM,"[9]; Homo sapiens, 10 µM single dose, RPMI-8226 (Leukemia), read-out: Growth inhibition (%)",95.5%
same,GI50,"[9]; Homo sapiens, five-dose, RPMI-8226",3.09 µM
same,CC50,"[9]; Homo sapiens, five-dose, RPMI-8226, read-out: LC50 (the source's name)",> 100 µM
same,TGI,"[9]; five-dose, RPMI-8226",>100 µM
same,inhibition at 10 µM,[10],18.3%
same,inhibition at 10 µM,"[11]; Homo sapiens, 10 µM single dose, HS 578T (Breast), read-out: Growth inhibition (%)",62.7%
same,GI50,"[11]; Homo sapiens, five-dose, HS 578T",12.8 µM
same,CC50,"[11]; Homo sapiens, five-dose, HS 578T, read-out: LC50 (the source's name)",> 100 µM
same,TGI,"[11]; five-dose, HS 578T",98.10 µM
same,CC50,"[12]; Homo sapiens, SK-MEL-28, 48 h, five-dose, SK-MEL-28, read-out: LC50 (the source's name)",71.5 µM
same,inhibition at 10 µM,"[12]; Homo sapiens, 10 µM single dose, 48 h, SK-MEL-28 (Melanoma), read-out: Growth inhibition (%)",46.3%
same,GI50,"[12]; Homo sapiens, five-dose, 48 h, SK-MEL-28",12.3 µM
same,TGI,"[12]; five-dose, 48 h, SK-MEL-28",28.50 µM
same,CC50,"[12]; five-dose, 48 h, SK-MEL-28, read-out: LC50 (the source's name)",65.6 µM
same,inhibition at 10 µM,"[13]; Homo sapiens, 10 µM single dose, KM12 (Colon), read-out: Growth inhibition (%)",99.7%
same,GI50,"[13]; Homo sapiens, five-dose, KM12",5.3 µM
same,TGI,"[13]; five-dose, KM12",>100 µM
same,inhibition at 10 µM,"[14]; Homo sapiens, K562, 10 µM single dose, K-562 (Leukemia), read-out: Growth inhibition (%)",95%
same,GI50,"[14]; Homo sapiens, K562, five-dose, K-562",3.08 µM
same,CC50,"[14]; Homo sapiens, K562, five-dose, K-562, read-out: LC50 (the source's name)",> 100 µM
same,TGI,"[14]; five-dose, K-562",>100 µM
same,inhibition at 10 µM,"[15]; Homo sapiens, 10 µM single dose, MCF7 (Breast), read-out: Growth inhibition (%)",90.5%
same,GI50,"[15]; Homo sapiens, five-dose, MCF7",2900 nM
same,CC50,"[15]; Homo sapiens, five-dose, MCF7, read-out: LC50 (the source's name)",> 100 µM
same,TGI,"[15]; five-dose, MCF7",30.90 µM
same,inhibition at 10 µM,"[16]; Homo sapiens, 10 µM single dose, OVCAR-5 (Ovarian), read-out: Growth inhibition (%)",21.7%
same,GI50,"[16]; Homo sapiens, five-dose, OVCAR-5",25 µM
same,TGI,"[16]; five-dose, OVCAR-5",>100 µM
same,inhibition at 10 µM,"[17]; Homo sapiens, T47D, 10 µM single dose, T-47D (Breast), read-out: Growth inhibition (%)",69%
same,GI50,"[17]; Homo sapiens, T47D, five-dose, T-47D",3.18 µM
same,CC50,"[17]; Homo sapiens, T47D, five-dose, T-47D, read-out: LC50 (the source's name)",> 100 µM
same,TGI,"[17]; five-dose, T-47D",>100 µM
same,GI50,"[18]; Homo sapiens, Malme-3M",18.9 µM
same,TGI,[18],75.70 µM
same,inhibition at 10 µM,"[19]; Homo sapiens, 10 µM single dose, SN12C (Renal), read-out: Growth inhibition (%)",66.1%
same,GI50,"[19]; Homo sapiens, five-dose, SN12C",9.74 µM
same,CC50,"[19]; Homo sapiens, five-dose, SN12C, read-out: LC50 (the source's name)",> 100 µM
same,TGI,"[19]; five-dose, SN12C",66.60 µM
same,inhibition at 10 µM,"[20]; Homo sapiens, 10 µM single dose, HCC-2998 (Colon), read-out: Growth inhibition (%)",50.9%
same,GI50,"[20]; Homo sapiens, five-dose, HCC-2998",13.7 µM
same,CC50,"[20]; Homo sapiens, five-dose, HCC-2998, read-out: LC50 (the source's name)",> 100 µM
same,TGI,"[20]; five-dose, HCC-2998",>100 µM
same,GI50,"[21]; Homo sapiens, IGROV-1",10.7 µM
same,CC50,"[21]; Homo sapiens, IGROV-1, read-out: LC50 (the source's name)",> 100 µM
same,TGI,[21],3.32 µM
same,inhibition at 10 µM,"[22]; Homo sapiens, 10 µM single dose, MDA-MB-231 (Breast), read-out: Growth inhibition (%)",67.5%
same,GI50,"[22]; Homo sapiens, five-dose, MDA-MB-231/ATCC",15.8 µM
same,CC50,"[22]; Homo sapiens, five-dose, MDA-MB-231/ATCC, read-out: LC50 (the source's name)",> 100 µM
same,TGI,"[22]; five-dose, MDA-MB-231/ATCC",>100 µM
same,inhibition at 10 µM,"[23]; Homo sapiens, 10 µM single dose, HCT-116 (Colon), read-out: Growth inhibition (%)",93%
same,GI50,"[23]; Homo sapiens, five-dose, HCT-116",6.97 µM
same,TGI,"[23]; five-dose, HCT-116",>100 µM
same,inhibition at 10 µM,"[24]; Homo sapiens, 10 µM single dose, SF-295 (CNS), read-out: Growth inhibition (%)",63.3%
same,GI50,"[24]; Homo sapiens, five-dose, SF-295",10.6 µM
same,TGI,"[24]; five-dose, SF-295",39.90 µM
same,inhibition at 10 µM,"[25]; Homo sapiens, 10 µM single dose, COLO 205 (Colon), read-out: Growth inhibition (%)",96.4%
same,GI50,"[25]; Homo sapiens, five-dose, COLO 205",9.62 µM
same,TGI,"[25]; five-dose, COLO 205",>100 µM
same,inhibition at 10 µM,"[26]; Homo sapiens, 10 µM single dose, TK-10 (Renal), read-out: Growth inhibition (%)",29.4%
same,GI50,"[26]; Homo sapiens, five-dose, TK-10",77.1 µM
same,CC50,"[26]; Homo sapiens, five-dose, TK-10, read-out: LC50 (the source's name)",> 100 µM
same,TGI,"[26]; five-dose, TK-10",>100 µM
same,GI50,"[27]; Homo sapiens, RXF 393, five-dose, RXF393",9.07 µM
same,CC50,"[27]; Homo sapiens, RXF 393, five-dose, RXF393, read-out: LC50 (the source's name)",> 100 µM
same,inhibition at 10 µM,"[27]; Homo sapiens, 10 µM single dose, RXF 393 (Renal), read-out: Growth inhibition (%)",63.4%
same,TGI,"[27]; five-dose, RXF393",90.20 µM
same,inhibition at 10 µM,"[28]; 10 µM single dose, MOLT-4 (Leukemia), read-out: Growth inhibition (%)",98.1%
same,GI50,"[28]; five-dose, MOLT-4",2990 nM
same,CC50,"[28]; five-dose, MOLT-4, read-out: LC50 (the source's name)",> 100 µM
same,inhibition at 10 µM,"[29]; Homo sapiens, 10 µM single dose, PC-3 (Prostate), read-out: Growth inhibition (%)",67.1%
same,GI50,"[29]; Homo sapiens, five-dose, PC-3",6.37 µM
same,CC50,"[29]; Homo sapiens, five-dose, PC-3, read-out: LC50 (the source's name)",> 100 µM
same,TGI,"[29]; five-dose, PC-3",>100 µM
same,GI50,"[30]; Homo sapiens, HL-60, five-dose, HL60(TB)",4.08 µM
same,CC50,"[30]; Homo sapiens, HL-60, five-dose, HL60(TB), read-out: LC50 (the source's name)",> 100 µM
same,inhibition at 10 µM,"[30]; Homo sapiens, 10 µM single dose, HL-60(TB) (Leukemia), read-out: Growth inhibition (%)",95.5%
same,TGI,"[30]; five-dose, HL60(TB)",>100 µM
